Laboratory results published in publication PMC9179882 (Cancers, 2022).

Legend:
SW480 xenograft = SW480 xenograft study in NSG mice; assay type: in vivo, NOD scid gamma (NSG) mice
Description: NOD scid gamma (NSG) mice were purchased from CIBM-UGR and housed at the animal facility according to institutional guidelines (Approved Ethical Committee #152-CEEA-OH-2016). For xenograft generation, 1 × 10^5 SW480 cells in 100 μL PBS were subcutaneously injected into the flank of 8-week-old female mice. Treatment started when tumors reached ~20 mm^3. Mice were randomly divided into two groups of seven mice each and treated with either vehicle DMSO or 200 mg/kg of GA intraperitoneally every other day for 38 days. Animals were monitored every two days after cell injection until final time point when they were sacrificed, and tumors were dissected for further analyses. Specifically, tumor volumes were determined every two days using digital calipers according to the formula: In progress tumor volume = (π × length × width^2)/6 [12].
Fixation, paraffin-embedding, and sectioning of tumor samples were performed by the histopathology core service at the Centre for Genomics and Oncological Research (Granada, Spain). In order to evaluate the percentage of proliferating cells, tumor sections were immunostained with Ki67 and counterstained with hematoxylin and eosin (H&E) at Atrys Health (Barcelona, Spain). The staining was visualized using NDP.view2 Viewing software (Hamamatsu), and Ki67 coverage was quantified on ten different images per tumor using Fiji software. In order to measure BG4 signal, tumor sections were dewaxed and rehydrated following standard methods. Epitope retrieval was performed at 100 °C for 20 min with citrate buffer (citrate-based buffer pH 6.0) according to previous studies. […] Slides were then counterstained for 5 min with DAPI to visualize the cell nuclei. Antifade Mowiol (81381, Merck, Darmstadt, Germany) was used as mounting media. Images were acquired on a Confocal Zeiss LSM 710 inverted microscope with a 63× immersion objective. BG4 mean nuclear fluorescence intensity was quantified using Fiji software (N > 2000). Antibodies used are listed in Supplementary Table S1.
We investigated the activity of GA in a mouse xenograft model of CRC to determine if the in vitro activity of GA was paralleled in vivo. According to previous reports with SW480 cells, we executed xenograft studies by subcutaneous injection in NOD scid gamma (NSG) mice. Intraperitoneal treatment started when tumors reached ~20 mm^3 (35 days post-injection), and a therapeutic schedule with either a vehicle or 200 mg/kg of GA, every other day for 38 days, was explored based on previous studies. Initially, each group included seven animals but two mice from the control group were excluded because the tumors had developed late. Therefore, five mice were considered in the control group and seven in the GA-treated one. […] In particular, when comparing the tumor volume between control and treated animals at each time point by Student’s two-tailed t-test, significant differences were observed from the 23rd day after initiation of the treatment. Histopathological analyses of tumors from animals sacrificed at the ending point were also conducted. […] Furthermore, immunohistochemical assessment of the antigen Ki67 was used to estimate cell proliferation.

CMYC G4 [1] = test: UV-vis titration, CMYC G4; assay type: binding; conditions: UV-vis titration at 265 nm, CMYC G4, 25 °C, pH 7.0; read-out: dissociation constant (Kd)
Description: (§1) G4-oligonucleotides listed in Supplementary Table S3 were purchased from Integrated DNA Technologies (Clareville, IA, USA). All of them were dissolved in G4s buffer (10 mM potassium phosphate, 100 mM potassium chloride at pH 7.0), heated at 95 °C for 10 min, slowly cooled to RT, and stored at 4 °C.
(§2) UV-vis absorption spectra were registered in a Varian Cary 50 UV-vis spectrophotometer at 25 °C. Concentration of the prefolded G4 DNA was 5 μM in G4s buffer (10 mM potassium phosphate buffer containing 100 mM potassium chloride at pH 7.0). Once the DNA was placed in the cuvette, a concentrated solution of GA (1 mM) was routinely added, 1 μL each time, with a Hamilton syringe and subsequently mixed with a pipette. After each addition of the GA solution, a UV-vis spectrum was recorded. In total, 10 μL of GA solution were added, with a final ratio of 1:20 G4 DNA:GA. For the blank, the same experiment with the successive additions was repeated, beginning just with buffer in the cuvette. […] Dissociation constants (Kd) were evaluated at 265 nm using the following equation:(1) A=Am+(Aml-Am)×(M+L+Kd)−(M+L+Kd)^2−4×M×L/2×M where A is the absorbance signal, Am is the signal of DNA in absence of the ligand, Aml is the signal of DNA in presence of the ligand, M is the total concentration of DNA, L is the total concentration of ligand, and Kd is the dissociation constant.

CMYC G4 [2] = test: TOPRO3 fluorescent intercalator displacement (FID) assay, CMYC G4; assay type: binding; conditions: GA 10 µM, relative to GA-free control, CMYC promoter G4
Description: as §1
(§3) We used TOPRO3 (T3605, Thermo Scientific, MA, USA) as a fluorescent intercalator for FID assays. In particular, […] TOPRO3 was incubated with […] prefolded G4s and exposed to 10 µM GA in 96-well plates. TOPRO3 was excited at 642 nm, and emission profile was monitored between 650–800 nm with Infinite M200 Plate Reader (Tecan). Fluorescence values were calculated as follows: %Fluorescence = A/B × 100; where (A) is the fluorescence value in presence of GA, and (B) corresponds to the fluorescence value in GA-free controls. All assays were conducted in triplicate. The G4-oligonucleotides used in the current study are listed in Supplementary Table S3.

5′ETS G4 [3] = test: UV-vis titration, 5′ETS G4; assay type: binding; conditions: UV-vis titration at 265 nm, 5′ETS G4, 25 °C, pH 7.0; read-out: dissociation constant (Kd)
Description: as §1, §2

5′ETS G4 [4] = test: TOPRO3 fluorescent intercalator displacement (FID) assay, 5′ETS G4; assay type: binding; conditions: GA 10 µM, relative to GA-free control
Description: as §1, §3

CMYC G4 [5] = test: PCR-stop assay, CMYC G4; assay type: biochemical; conditions: CMYC G4 sequence, GA 0-100 µM
[6] = tested on: CMYC (CD and UV-vis oligonucleotide) (DNA, G4) TGGGGAGGGTGGGGAGGGTGGGGAAGG; test: UV-vis titration at 265 nm; conditions: 100 mM KCl, 10 mM potassium phosphate; pH 7.0, 25 °C; 5 µM DNA; GA to 1:20 DNA:GA
[7] = tumors at end point, 200 mg/kg GA

Kd (CMYC G4 [1]): 113 µM | TOPRO3 fluorescence percentage (CMYC G4 [2]): 84.3% | Kd (5′ETS G4 [3]): 148 µM | TOPRO3 fluorescence percentage (5′ETS G4 [4]): 84.2% | Kd [6]: 113 µM
SMILES: O=C(O)c1cc(O)c(O)c(O)c1 [Gallic acid, 3,4,5-trihydroxybenzoic acid]
body weight reduction or adverse effects (SW480 xenograft; 200 mg/kg GA i.p. every other day for 38 days): No body weight reduction or adverse effects such as tumor ulceration was observed | progression of tumor xenografts (tumor volume) (SW480 xenograft; 200 mg/kg GA i.p. every other day for 38 days vs vehicle): robust blockade on the progression of tumor xenografts | damage to major organs (SW480 xenograft; CRC xenografts treated with GA): without causing observable damage to major organs | 5′ETS expression in tumors (qRT-PCR) (SW480 xenograft; responder mice, 200 mg/kg GA): significantly downregulated | CMYC expression in tumors (qRT-PCR) (SW480 xenograft; responder mice, 200 mg/kg GA): significantly downregulated | Ki67 coverage in tumor sections (SW480 xenograft; [7]): coverage of Ki67 was significantly decreased | nuclear BG4 signal in tumor sections (SW480 xenograft; [7]): significant increase in nuclear BG4 signal | concentration inhibiting accumulation of amplified products (CMYC G4 [5]): 50 µM
